# Assay results reported in patent US20110144010A1, “Spontaneously Dispersible Preconcentrates Including a Peptide Drug in a Solid or Semisolid Carrier” (Novo Nordisk A/S, priority 2007, published 2011).
# Tests used:
# non-diabetic SPRD rats = assay: Reduction of the blood glucose level after per-oral dosage (via gavage) to non-diabetic SPRD rats; assay type: in vivo
# Description: The reduction in blood glucose in non-diabetic rats was examined after:
# 3) Vehicle SEDDS containing 62.5% propylene glycol, 31.25% Capmul MCM C10 and 6.25% poloxamer 407 was dosed orally. SEDDS had been melted at 35° C. before dosing.
# (mean±SEM, n=5-6, dosage volume=4 ml/kg).
# non diabetic dogs = assay: Reduction in blood glucose after oral administration of enteric coated capsule to non diabetic dogs; assay type: in vivo; conditions: overnight fasted dogs, propylene glycol, Capmul MCM, Pluronic F127, PEG 3350
substance,measurement,setting,value
A14GluB25HisdesB30 human insulin,Blood glucose level,"non-diabetic SPRD rats; 4800 nmol/kg in SEDDS (propylene glycol, Capmul MCM C10, poloxamer 407) or 4880 nmol/kg in H2O, FIG. 4",Reduction of the Blood Glucose Level
same,Blood glucose levels,"non diabetic dogs; oral enteric coated capsule: 46 mg A14GluB25HisdesB30 human insulin, FIG. 2",Reduction in blood glucose levels
Asp^B28 human insulin [insulin aspart],Blood glucose level,"non-diabetic SPRD rats; 9600 nmol/kg in SEDDS (propylene glycol, Capmul MCM C10, poloxamer 407) or 9800 nmol/kg in H2O, FIG. 3",Reduction of the Blood Glucose Level
same,Blood glucose levels,"non diabetic dogs; oral enteric coated capsule: 69 mg insulin aspart, FIG. 1",Reduction in blood glucose levels
